According to patent US20260297129A1, “PEPTIDES AS SELECTIVE IL-23 RECEPTOR INHIBITORS” (SANOFI, priority 2023, published 2026):
Converted amounts (≈) assume the structure as drawn. Like-named read-outs stand apart in the source and are kept apart here. Numbered stars: 1 amine (or outer) side, 2 acyl side, 3 side chain; on linkers, the order of the positions; unused ones are H or OH. Bridge positions count the residues as written; N and C are the ends. Square brackets hold non-standard residues; d marks the D form. Peptide text beside a SMILES is read from it. * marks the point of attachment. Lys(Me,(CH2)4NMe(CH2)5CO) = CN(CCCCCC(=O)[*:3])CCCCN(C)CCCC[C@H](N[*:1])C(=O)[*:2]; X2 = O=C(Cc1ccc(-c2ccc(CC(=O)[*:2])cc2)cc1)[*:1]; Trp(7-Me) = Cc1cccc2c(C[C@H](N)C(=O)O)c[nH]c12; 2Nal = N[C@@H](Cc1ccc2ccccc2c1)C(=O)O; d2Nal = N[C@H](Cc1ccc2ccccc2c1)C(=O)O; 3Pal = N[C@@H](Cc1cccnc1)C(=O)O; 12Ado = NCCCCCCCCCCCC(=O)O; Aun = NCCCCCCCCCCC(=O)O; Thp = NC1(C(=O)O)CCOCC1; Me2NCH2CH2 = CN(C)CC*; Aib = CC(C)(N)C(=O)O; Sar = CNCC(=O)O

What was measured:
[1] = Solubility of peptide compounds in buffer formulations (Table 5); type: physicochemical; settings: target 1 mg/ml
Method in brief: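 Solubility was quantified by UHPLC-UV, comparing 1:10-diluted filtrate peak areas with a DMSO reference standard and correcting for extinction coefficients. Samples were prepared from dried DMSO stock at 1 mg/mL nominal in pH 1.2 HCl, pH 6.5 or pH 7.4 phosphate (50 mM), and agitated 2 h.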

[2] = Protease stability in simulated gastric fluids (FaSSGF) (Table 7); type: in vitro ADME; settings: fassgf with pepsin, 60 min, 37° C., read-out: Remaining percentage of peptide compound, FaSSGF 60 (min)
Method in brief: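 Peptides at 1 μM final were incubated at 37 °C in simulated gastric fluid with pepsin (320 mg per 100 mL SGF concentrate). Samples were quenched with ethanol (0.1% HCOOH) at 0, 60, 120 and 240 min and analysed by LC-MS/MS. Percent remaining is the peak area relative to T0 (100%).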

human IL-23R = molecular target: T1, human IL-23R (Homo sapiens, UniProt Q5VWK5); test: Inhibition of IL-23 binding to IL-23R as measured by ELISA (Table 8); settings: human IL23 coated 1 μg/ml; human IL-23R-Fc 0.1 μg/ml; 60 min; read-out: Human ELISA IL23/IL23R IC50
T1 sequence (Q5VWK5 24-353 limits assumed): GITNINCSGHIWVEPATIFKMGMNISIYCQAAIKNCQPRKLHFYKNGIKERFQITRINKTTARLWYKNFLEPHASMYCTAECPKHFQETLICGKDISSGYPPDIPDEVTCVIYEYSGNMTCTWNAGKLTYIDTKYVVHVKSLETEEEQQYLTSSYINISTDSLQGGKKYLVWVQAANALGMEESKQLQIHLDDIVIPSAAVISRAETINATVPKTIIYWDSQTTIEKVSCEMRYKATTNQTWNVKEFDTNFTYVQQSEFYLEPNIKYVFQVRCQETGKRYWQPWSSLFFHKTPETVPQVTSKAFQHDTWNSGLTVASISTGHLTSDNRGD
Protocol: Antagonism of compounds for human interleukin-23 receptor inhibitors, was determined by an ELISA assay.
A 384-well plate was coated with 50 μl/well of human IL23 at a final concentration of 1 μg/ml and incubated overnight at 4° C. The wells were washed 3 times with 80 μl wash buffer and blocked with 80 μl blocking buffer for 60 minutes at room temperature and washed again. 20 μl of serially diluted test peptides was added to each well and subsequently 20 μl of recombinant human IL-23R-Fc chimera at final concentration of 0.1 μg/ml. The plate was incubated for 60 minutes at room temperature. After the wells were washed, bound IL23R-Fc was detected with goat anti-hu-IgG1-HRP antibody. Signals were visualized with QUANTABLU fluorogenic peroxidase substrate.

[3] = Chemical stability (relative purity loss) of peptide compounds in buffer formulations (Table 6); type: physicochemical; settings: 2° C. and 37° C.
Method in brief: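 Compounds at 0.5 mg/mL in 50 mM HCl pH 1.2, 50 mM phosphate pH 6.5 or pH 7.4, each with acetonitrile (3:1), stored 24 hours at 2° C and 37° C. Purity measured by UHPLC-UV before and after. Stability expressed as relative purity loss.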

[4] = Buffer pH 1.1 (head; method: 50 mM HCl pH 1.2), 2 h agitation, read-out: Solubility, Buffer pH 1.1
[5] = aqueous buffer, 50 mM phosphate buffer pH 6.5, 2 h agitation, read-out: Solubility, Buffer pH 6.5
[6] = aqueous buffer, 50 mM phosphate buffer pH 7.4, 2 h agitation, read-out: Solubility, Buffer pH 7.4
[7] = 50 mM phosphate buffer pH 6.5 + acetonitrile (3:1), read-out: Chemical stability (relative purity loss), Buffer pH 6.5
[8] = 50 mM phosphate buffer pH 7.4 + acetonitrile (3:1), read-out: Chemical stability (relative purity loss), Buffer pH 7.4
[9] = 50 mm hcl + acetonitrile, Buffer pH 1.1 (head; method: 50 mM HCl pH 1.2 + acetonitrile 3:1), read-out: Chemical stability (relative purity loss), Buffer pH 1.1

Structure (SMILES) | solubility at 2 h [1, 4] [µg/mL] | solubility at 2 h [1, 5] [µg/mL] | solubility at 2 h [1, 6] [µg/mL] | remaining at 1 h, 1 µM [2] [%] | IC50 (human IL-23R) [nM] | degraded at 24 h [3, 7] [%] | degraded at 24 h [3, 8] [%] | degraded at 24 h [3, 9] [%]
CC(=O)NCCCC[C@@H]1NC(=O)[C@H](Cc2c[nH]c3c(C)cccc23)NC(=O)CCCCCN(C)CCCCN(C)CCCC[C@@H](C(=O)N[C@@H](CC(N)=O)C(=O)N[C@@H](Cc2cccnc2)C(=O)N(C)CC(N)=O)NC(=O)C(C)(C)NC(=O)[C@H](Cc2ccc3ccccc3c2)NC(=O)[C@H](Cc2ccc(OCCN(C)C)cc2)NC(=O)C2(CCOCC2)NC1=O [compound 18] ([Trp(7-Me)]K(Ac)[Thp]Y(Me2NCH2CH2)[2Nal][Aib][Lys(Me,(CH2)4NMe(CH2)5CO)]N[3Pal][Sar]-NH2; lactam N-7) | ≥ 1060 | ≥ 980 | ≥ 990 | 100 | 0.68 | 0 | 0 | 3.8
Cc1cccc2c(C[C@@H]3NC(=O)CCCCCCCCCCNC(=O)CC[C@@H](C(=O)N[C@@H](CC(N)=O)C(=O)N[C@@H](Cc4cccnc4)C(=O)N(C)CC(N)=O)NC(=O)C(C)(C)NC(=O)[C@H](Cc4ccc5ccccc5c4)NC(=O)[C@H](Cc4ccc(OCCN(C)C)cc4)NC(=O)C4(CCOCC4)NC(=O)[C@H](CC(C)C)NC3=O)c[nH]c12 [compound 7] ([Aun][Trp(7-Me)]L[Thp]Y(Me2NCH2CH2)[2Nal][Aib]EN[3Pal][Sar]-NH2; lactam N-8) | 20 (≈ 12.5 µM) | < 10 | < 10 | 6 | 2.41 | 0 | 0.5 | 3.9
Cc1cccc2c(C[C@@H]3NC(=O)CCCCCCCCCCCNC(=O)CC[C@@H](C(=O)N[C@@H](CC(N)=O)C(=O)N[C@@H](Cc4cccnc4)C(=O)N(C)CC(N)=O)NC(=O)C(C)(C)NC(=O)[C@H](Cc4ccc5ccccc5c4)NC(=O)[C@H](Cc4ccc(OCCN(C)C)cc4)NC(=O)C4(CCOCC4)NC(=O)[C@H](CCC(N)=O)NC3=O)c[nH]c12 [compound 2] ([12Ado][Trp(7-Me)]Q[Thp]Y(Me2NCH2CH2)[2Nal][Aib]EN[3Pal][Sar]-NH2; lactam N-8) | ≥ 1140 | 220 (≈ 135 µM) | 10 (≈ 6.13 µM) | 73 | 0.32 | 0 | 0.1 | 6.4

More lines, now with the values ahead:

solubility at 2 h [1, 4] [µg/mL] | solubility at 2 h [1, 5] [µg/mL] | solubility at 2 h [1, 6] [µg/mL] | remaining at 1 h, 1 µM [2] [%] | IC50 (human IL-23R) [nM] | degraded at 24 h [3, 7] [%] | degraded at 24 h [3, 8] [%] | degraded at 24 h [3, 9] [%] | Structure (SMILES)
≥ 970 | 270 (≈ 167 µM) | 60 (≈ 37.1 µM) | 80 | 0.62 | 0 | 0 | 6.3 | Cc1cccc2c(C[C@@H]3NC(=O)CCCCCCCCCCNC(=O)CC[C@@H](C(=O)N[C@@H](CC(N)=O)C(=O)N[C@@H](Cc4cccnc4)C(=O)N(C)CC(N)=O)NC(=O)C(C)(C)NC(=O)[C@@H](Cc4ccc5ccccc5c4)NC(=O)[C@H](Cc4ccc(OCCN(C)C)cc4)NC(=O)C4(CCOCC4)NC(=O)[C@H](CCC(N)=O)NC3=O)c[nH]c12 [compound 4] ([Aun][Trp(7-Me)]Q[Thp]Y(Me2NCH2CH2)[d2Nal][Aib]EN[3Pal][Sar]-NH2; lactam N-8)
≥ 990 | ≥ 920 | ≥ 920 | 87 | 0.63 | 0 | 0.4 | 7.1 | Cc1cccc2c(C[C@@H]3NC(=O)Cc4ccc(cc4)-c4ccc(cc4)CC(=O)NCCCC[C@@H](C(=O)N[C@@H](CC(N)=O)C(=O)N[C@@H](Cc4cccnc4)C(=O)N(C)CC(N)=O)NC(=O)C(C)(C)NC(=O)[C@H](Cc4ccc5ccccc5c4)NC(=O)[C@H](Cc4ccc(OCCN(C)C)cc4)NC(=O)C4(CCOCC4)NC(=O)[C@H](CCC(N)=O)NC3=O)c[nH]c12 [compound 15] ([Trp(7-Me)]Q[Thp]Y(Me2NCH2CH2)[2Nal][Aib]KN[3Pal][Sar]-NH2; linker N-7 via X2)
